Legend:
[1] = tested on: EC cell lines (NT2/D1, NT2D1/R1, 833K, 833KCP, and Tera-1); assay: Cell-Titre Glo viable cell growth and survival, all EC cell lines; format: cell-based; conditions: 10 to 5000 nM added fresh each day for three days; FIG. 1
Description: Indicated doses of decitabine were added fresh each day for three days to exponentially growing cultures. Viable cell growth and survival were measured. Data are normalized to no drug treatment. EC cells are NT2/D1, NT2D1/R1, 833K, 833KCP, and Tera-1. Data are the average of 3 experiments in biological duplicate except for MCF-7 cells, which were assayed twice. Error bars are standard deviation (S.D.).
Cell growth and viability of five EC cell lines (NT2/D1, NT2D1/R1, 833K, 833KCP, and Tera-1) were determined, including two cell lines that are cisplatin-resistant (NT2/D1-R1 and 833KCP). Three control somatic tumor cell lines were also tested (HCT116, MCF7 and U2OS). […] Viable cell growth and survival were measured using Cell-Titre Glo (Promega) assays. […] These higher values are similar to the values shown in FIG. 1 for somatic tumor cell lines (MCF7, U2OS and HCT116).
NT2/D1, NT2D1-R1, 833K, 833K-CP, Tera-1, U20S, and HCT116 cells were cultured in DMEM with 10% FBS supplemented with glutamine and antibiotics except for MCF7 cells that were cultured in F12-DMEM. The derivation of the NT2/D1-resistant NT2/D1-R1 cell line has been previously described (Curtin et al. 2001. Oncogene 20:2559-2569; Kerley-Hamilton et al. 2007. Biochim. Biophys. Acta 1769:209-219). Cells were treated with the indicated dosages of 5-azadeoxycytidine (5-aza-CdR) for 3 days. This drug was replenished each day. […]

[2] = tested on: RIN1, SOX15 and TLR4 in NT2/D1 cells; assay: Real-time PCR of gene expression; format: cell-based; conditions: 10 nM, 3 days, FIG. 14
From the text: The graph depicts an average of triplicate sample determinations. Error bars are standard deviation. *=p<0.05; **=p<0.005.
However, methylation changes were less robust in the experiments in NT2/D1 cells. Only 12 genes were identified as having significant decreases in promoter methylation. […] These six genes included RIN1, SOX15, TLR4, GPER, TRIM54, and CD164L2.
(§1) SYBR green-based real-time PCR (Applied Biosystems) was employed using the ddCT method normalized to GAPDH. For western blot analysis cells were lysed in radioimmune precipitation buffer and separated by SDS-PAGE. Antibodies to actin (sc01615, Santa Cruz), 139-H2AX (Cell Signaling), PARP (c-2-10, Biomol International) and p53 (D0-1, Santa Cruz) were used.

[3] = tested on: phosphorylated H2AX in NT2/D1-R1 cells; assay: DNA damage by induction of phosphorylated H2AX (western blot); format: cell-based; conditions: three day decitabine treatment
From the text: Importantly, decitabine-mediated H2AX activation also occurs in the presence of the caspase 3 inhibitor (Z-VAD-FMK) at concentrations that inhibit PARP cleavage.
as §1

[4] = tested on: NT2/D1 and NT2/D1-R1 cells expressing DNMT3B-targeting shRNAs; assay: Decitabine dose-response in DNMT3B shRNA knockdown EC cells; format: cell-based, human
Description: Data are the average of biological triplicates and are representative of at least two experiments. Error bars are S.D.
Viable cell growth and survival were measured. Data was normalized to no drug treatment. Error bars (within symbols) are standard deviation. * p=<0.05 compared to untreated controls.
Five distinct lentiviral shRNAs for DNMT3B (sh84, sh85, sh86, sh87, and sh88) were used to knock down DNMT3B expression. Six potential alternatively spliced isoforms of DNMT3B exist; the most biologically relevant isoforms are variants 1, 2, 3 and 6 (Jones, P. A. and S. B. Baylin. 2007. Cell 128:683-692). […] Western blot analysis of NT2/D1 and NT2/D1-R1 cells was also performed with cells treated with DNMT3B shRNA ([…]) and employing DNMT3B antibody, H-230. The results confirmed the reduced expression of DNMT3B when the shRNA were employed. None of the DNMT3B-specific shRNAs affected levels of DNMT1 or DNMT3A (FIG. 2). […] However, knockdown of DNMT3B by itself had no apparent effect on the growth of NT2/D1 or NT2/D1-R1 cells. […] It had been previously reported that cisplatin causes a global p53-dominant transcriptional response in EC cells (Kerley-Hamilton et al. 2005. Oncogene 24:6090-6100). […]
Cells were cultured in DMEM media (Gibco) with 10% FBS. […] Cell proliferation and survival were assessed with the CELL-TITRE GLO assay (Promega). […]

[5] = tested on: NT2/D1 cells; assay: Gene expression microarray with PAM cluster analysis (Tables 1-5); format: cell-based, human; conditions: 1.5-fold or greater
Description: The cisplatin treatment protocol has been previously described (Kerley-Hamilton et al. 2005. Oncogene 24:6090-6100).
The same effect was not observed in cells treated with cisplatin; gene expression levels were not dramatically altered in cisplatin-treated cells. […] The genes clustered into distinct patterns.
Next, partitioning around medoids (PAM) analysis was performed on the 1130 genes whose expression levels changed by 1.5-fold or greater as compared to control treatment. […] Changes in gene expression levels of representative genes for each cluster were confirmed in independent samples by real-time PCR (FIG. 10).
Expression analysis was performed on the […] HumanHT-12 v3 or […] HumanHT-12 v4 bead chip arrays ([…]) and scanned on the BeadArray Reader ([…]) according to manufacturer's instructions.

Nc1ncn([C@H]2C[C@H](O)[C@@H](CO)O2)c(=O)n1 [decitabine, 5-aza-deoxycytidine]
growth of all EC cell lines [1]: inhibited
expression of RIN1, SOX15 and TLR4 (real-time PCR) [2]: increased expression
DNA damage assessed by induction of phosphorylated H2AX [3]: induced DNA damage
effect of DNMT3B knockdown on response to low-dose 3 day decitabine treatment compared to sh-control cells ([4]; NT2/D1-R1 shDNMT3B, FIG. 11): extensive resistance
decitabine sensitivity of cells expressing DNMT3B-targeting shRNAs compared to control cells ([4]; NT2/D1 sh84, NT2/D1-R1 sh84, sh85, sh86, 3 day treatment, FIG. 3): dramatic reduction of decitabine sensitivity
Cluster 1: genes primarily up-regulated only with 3 days of decitabine treatment ([5]; 10 nM, 3 days): 704 genes
Cluster 3: genes upregulated by both decitabine treatment and cisplatin treatment [5]: 71 genes
Cluster 4: genes down-regulated by decitabine, enriched in pluripotency genes [5]: 186 genes
Cluster 5: genes down-regulated by both decitabine treatment and cisplatin treatment [5]: 88 genes
